Experiment: recombinant barcode read abundance after kanamycin selection (control-corrected) (log10(CPM+1)); higher = more efficient recombination; sequences stand for … in AGTGCAGAGAAAATCGGCCAGTTTTCTCTGCCTGCAGTCCGCATGCCGT…AGATTTATGCAGCGGACTGCCTTTCTCCCAAAGTGATAAACCGGACAGTATCATGGACCGGTTTTCCCGGTAATCCGTATTTGCAAGGTTGGTTTCACT; site = the 11-nt target
Summary of the method: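 Oligos holding a promoter, target, barcode and the J23119-driven first 104 bases of the bridge RNA were Gibson-cloned into a vector that supplied the other 73 bp plus a T7-inducible recombinase. This library was co-electroporated with a donor plasmid into E. coli. Two replicates went on chloramphenicol/ampicillin LB agar (control) and two on chloramphenicol/ampicillin/kanamycin with 0.1 mM IPTG. Recombination efficiency is read from averaged, control-corrected barcode counts per million at recombinant junctions, reported as log10(CPM+1).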
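Also: IS621 recombinase and bridge RNA in Escherichia coli cells.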

Sequence	recombinant barcode read abundance (log10)
CTTGGATCTTGGGTTCTAACCTGTTGCCT (site CTTGGAACTAG)	0.142
CTTGGATCTTGGGTTCTAACCTGTTGCCT (site CTTGGACCTAG)	0.116
CTTGGATCTTGGGTTCTAACCTGTTGCCT (site CTTGGAGCTAG)	0.0716
CTTGGATCTTGGGTTCTAACCTGTTGCCT (site CTTGGATCTAG)	0.913
CTTGGGCCTTGGGTTCTAACCTGTTGCCT (site CATGGGCCTAG)	0.0436
CTTGGGCCTTGGGTTCTAACCTGTTGCCT (site CCTGGGCCTAG)	0.16
CTTGGGCCTTGGGTTCTAACCTGTTGCCT (site CGTGGGCCTAG)	0.186
CTTGGGCCTTGGGTTCTAACCTGTTGCCT (site CTTGGGCCTAG)	0.417
CTTTGAACTTGGGTTCTAACCTGTTGCTA (site CTTTGAACTTA)	0.016
CTTTGAACTTGGGTTCTAACCTGTTGCTA (site TCGATCCCTAC)	0.102
CTTTGGCCTTGGGTTCTAACCTGTTGCTT (site CCTTGGGCTAA)	0.439
CTTTGGCCTTGGGTTCTAACCTGTTGCTT (site CTTTGGCCTAA)	0.0961
CTTTGTGCTTGGGTTCTAACCTGTTGCCT (site CTTAGGGCTAG)	0.32
CTTTGTGCTTGGGTTCTAACCTGTTGCCT (site CTTTGTGCTAG)	0.129
GAAACTGCTTGGGTTCTAACCTGTTGCCT (site GAAACTGCTAG)	0.736
GAAACTGCTTGGGTTCTAACCTGTTGCCT (site GACACTGCTAG)	0.211
GAAACTGCTTGGGTTCTAACCTGTTGCCT (site GAGACTGCTAG)	0.158
GAAACTGCTTGGGTTCTAACCTGTTGCCT (site GATACTGCTAG)	0.0634
GAAAGCTCTTGGGTTCTAACCTGTTGCGT (site GAAAGCTCTAC)	2.99
GAAAGCTCTTGGGTTCTAACCTGTTGCGT (site TCCTATGCTCG)	0.0782
GAAAGTGCTTGGGTTCTAACCTGTTGCCT (site CAAAGTGCTAG)	0.0857
GAAAGTGCTTGGGTTCTAACCTGTTGCCT (site GAAAGTGCTAG)	1.23

Sequence	recombinant barcode read abundance (log10)
GAAATAACTTGGGTTCTAACCTGTTGCGT (site AGCCCTCCTCT)	0.169
GAAATAACTTGGGTTCTAACCTGTTGCGT (site GAAATAACTAC)	0.995
GAAATGTCTTGGGTTCTAACCTGTTGCCT (site GAAATGTCTAG)	1.75
GAAATGTCTTGGGTTCTAACCTGTTGCCT (site GCAATGTCTAG)	0.0338
GAAATGTCTTGGGTTCTAACCTGTTGCCT (site GGAATGTCTAG)	0.262
GAAATGTCTTGGGTTCTAACCTGTTGCCT (site GTAATGTCTAG)	0.634
GAACCTACTTGGGTTCTAACCTGTTGCGG (site GAACCTACTCC)	1.77
GAACCTACTTGGGTTCTAACCTGTTGCGG (site GAACCTACTTC)	0.107
GAAGACGCTTGGGTTCTAACCTGTTGCCT (site GAAGACGCTAG)	1.14
GAAGACGCTTGGGTTCTAACCTGTTGCCT (site GAAGCCGCTAG)	0.315
GAAGACGCTTGGGTTCTAACCTGTTGCCT (site GAAGGCGCTAG)	0
GAAGACGCTTGGGTTCTAACCTGTTGCCT (site GAAGTCGCTAG)	0.126
GAAGGCGCTTGGGTTCTAACCTGTTGCCT (site GAAGACGCTAG)	0.187
GAAGGCGCTTGGGTTCTAACCTGTTGCCT (site GAAGCCGCTAG)	0.306
GAAGGCGCTTGGGTTCTAACCTGTTGCCT (site GAAGGCGCTAG)	1.81
GAAGGCGCTTGGGTTCTAACCTGTTGCCT (site GAAGTCGCTAG)	0.0553
GAAGTCCCTTGGGTTCTAACCTGTTGCCT (site AAAGTCCCTAG)	0.558
GAAGTCCCTTGGGTTCTAACCTGTTGCCT (site CAAGTCCCTAG)	0.848
GAAGTCCCTTGGGTTCTAACCTGTTGCCT (site GAAGTCCCTAG)	1.82
GAAGTCCCTTGGGTTCTAACCTGTTGCCT (site TAAGTCCCTAG)	1.22
GAAGTGCCTTGGGTTCTAACCTGTTGCCT (site GAAGAGCCTAG)	0.272
GAAGTGCCTTGGGTTCTAACCTGTTGCCT (site GAAGCGCCTAG)	0.0713

Sequence	recombinant barcode read abundance (log10)
GAAGTGCCTTGGGTTCTAACCTGTTGCCT (site GAAGGGCCTAG)	0.195
GAAGTGCCTTGGGTTCTAACCTGTTGCCT (site GAAGTGCCTAG)	1.92
GAATCCTCTTGGGTTCTAACCTGTTGCCT (site AAATCCTCTAG)	0.145
GAATCCTCTTGGGTTCTAACCTGTTGCCT (site CAATCCTCTAG)	0.531
GAATCCTCTTGGGTTCTAACCTGTTGCCT (site GAATCCTCTAG)	2.06
GAATCCTCTTGGGTTCTAACCTGTTGCCT (site TAATCCTCTAG)	0.483
GAATGAGCTTGGGTTCTAACCTGTTGCCT (site CTCACGACTCT)	0.014
GAATGAGCTTGGGTTCTAACCTGTTGCCT (site GAATGAGCTAG)	1.43
GACAAGTCTTGGGTTCTAACCTGTTGCCT (site GAAACGTCTAG)	0.173
GACAAGTCTTGGGTTCTAACCTGTTGCCT (site GACAAGTCTAG)	1.14
GACACAACTTGGGTTCTAACCTGTTGCCT (site GACACAACTAG)	0
GACACAACTTGGGTTCTAACCTGTTGCCT (site GACCCATCTAG)	0.338
GACACGCCTTGGGTTCTAACCTGTTGCAT (site GACACGCCTAA)	0.0135
GACACGCCTTGGGTTCTAACCTGTTGCAT (site GACACGCCTAC)	0.326
GACACGCCTTGGGTTCTAACCTGTTGCAT (site GACACGCCTAG)	0.976
GACACGCCTTGGGTTCTAACCTGTTGCAT (site GACACGCCTAT)	0.189
GACAGGCCTTGGGTTCTAACCTGTTGCCT (site CACGGGCCTAG)	0.041
GACAGGCCTTGGGTTCTAACCTGTTGCCT (site GACAGGCCTAG)	0.627
GACATTCCTTGGGTTCTAACCTGTTGCCT (site AACATTCCTAG)	0.375
GACATTCCTTGGGTTCTAACCTGTTGCCT (site CACATTCCTAG)	0.113
GACATTCCTTGGGTTCTAACCTGTTGCCT (site GACATTCCTAG)	0.131
GACATTCCTTGGGTTCTAACCTGTTGCCT (site TACATTCCTAG)	0.0381

Sequence	recombinant barcode read abundance (log10)
GACCACCCTTGGGTTCTAACCTGTTGCGG (site ATCCACCCTCC)	1.14
GACCACCCTTGGGTTCTAACCTGTTGCGG (site GACCACCCTCC)	2.85
GACCCTACTTGGGTTCTAACCTGTTGCCT (site AACCCTACTAG)	0.111
GACCCTACTTGGGTTCTAACCTGTTGCCT (site CACCCTACTAG)	0.375
GACCCTACTTGGGTTCTAACCTGTTGCCT (site GACCCTACTAG)	0.516
GACCCTACTTGGGTTCTAACCTGTTGCCT (site TACCCTACTAG)	0.119
GACCGGGCTTGGGTTCTAACCTGTTGCCT (site GACCGAGCTAG)	0.092
GACCGGGCTTGGGTTCTAACCTGTTGCCT (site GACCGCGCTAG)	0.234
GACCGGGCTTGGGTTCTAACCTGTTGCCT (site GACCGGGCTAG)	0.592
GACCGGGCTTGGGTTCTAACCTGTTGCCT (site GACCGTGCTAG)	0.268
GACCGTCCTTGGGTTCTAACCTGTTGCAT (site GACCGTCCTAA)	0.167
GACCGTCCTTGGGTTCTAACCTGTTGCAT (site GACCGTCCTAC)	0.479
GACCGTCCTTGGGTTCTAACCTGTTGCAT (site GACCGTCCTAG)	0.54
GACCGTCCTTGGGTTCTAACCTGTTGCAT (site GACCGTCCTAT)	1.26
GACCGTCCTTGGGTTCTAACCTGTTGCCT (site GACCGTCCTAA)	0.0128
GACCGTCCTTGGGTTCTAACCTGTTGCCT (site GACCGTCCTAC)	0.1
GACCGTCCTTGGGTTCTAACCTGTTGCCT (site GACCGTCCTAG)	1
GACCGTCCTTGGGTTCTAACCTGTTGCCT (site GACCGTCCTAT)	0.263
GACGGATCTTGGGTTCTAACCTGTTGCAT (site GACGGATCTAA)	0.191
GACGGATCTTGGGTTCTAACCTGTTGCAT (site GACGGATCTAC)	0.269

— the supplement of paper PMC11208160
